This assay relates to ZIKV (MR766 strain). As to the kind of experiment: ZIKV infection of human forebrain organoids (MR766). It counts as cell-based, Zika virus. As to the method:
(A) Experimental design for evaluating the therapeutic efficacy and safety of HH using forebrain organoids. D20 or D40 Forebrain organoids were exposed to ZIKV (5×10^5 PFU/ml) or mock-treated for 24 h. After removal of ZIKV-containing medium, fresh virus-free medium plus compounds were added. Organoids were analyzed at day 4 (D20+4) or day 18 (D20+18) after initial ZIKV infection. (B and C) HH eliminates ZIKV infection in short-term cultures. Immunocytochemistry analysis (B) and the quantification of infection rate (C) of mock, DMSO or 25 μM HH treated ZIKV-infected D20 organoids (n=3). Scale bars, 100 μm. D20+4 organoids mainly consist of SOX2^+ progenitors and are highly infiltrated by ZIKV. […] (D) qRT-PCR analysis of total ZIKV vRNA in the supernatant of DMSO or 25 μM HH treated ZIKV-infected D20 and D40 organoids (n=3). (E) HH rescues ZIKV-related proliferation and apoptosis defects in D20+4 organoids. The number of proliferating cells (Ki67^+) is decreased and the number of apoptotic cells (CAS^+) is increased in ZIKV-infected organoids compared to mock and 25 μM HH treated organoids (n=3). Scale bars, 100 μm. […] Scale bars, 50 μm. […] Quantifications show average organoid perimeter of D20+18 organoids (H). Values represent mean±SEM (n=3). Scale bars, 1 mm. (I) HH rescues ZIKV-induced structural defects in forebrain organoids. Mock treated organoids contain clearly defined progenitor (SOX2) and neuronal (TUJ1) zones. Neurons migrate out of progenitor zones and settle at the edge of the organoid, while progenitor zones occupy more interior regions of the organoid. In contrast, D20+18 ZIVK infected organoids lack clearly defined progenitor and neuronal zones, which appear to intermix. Both neuron and progenitor zones appear to settle at the edge of the organoid. HH rescues the well-delineated structure of forebrain organoids (n=3). Scale bars, 100 μm. p values were calculated by unpaired two-tailed Student's t-test. *p<0.05, **p<0.01 and ***p<0.001.
D20 forebrain organoids were inoculated with ZIKV (MR766 strain) for 24 h, followed by treatment with 15 μM AQ or 25 μM HH for 3 days (D20+4, short-term) or 17 days (D20+18, long-term). Organoids were analyzed for ZIKV infection, cell proliferation, and apoptosis (FIG. 3A).
Generation and culture of human forebrain organoids. To induce forebrain organoid differentiation, H9 hESC line (WA-09, WiCell) hPSCs were dissociated to single cells using EDTA, and 9000 cells were reaggregated using low-adhesion V-bottom 96 well plates (Wako) in Essential8 Medium (Fisher Scientific) with 10 μM Y-27632 (Tocris Biosciences). After 24 h (day 0), medium was changed to Essential6 (Fischer Scientific) supplemented with 10 μM SB431542 (Tocris Biosciences), 500 nM LDN193189 (Stem Cell Technologies), and 2 μM XAV939 (Tocris Biosciences) until day 4. […]

“Also recorded” adds a separate entry of the source. Counter-ions that a name gives are not always drawn.

As to `CN1CCC2=C[C@H](O)[C@H]3OC(=O)c4cc5c(cc4[C@H]3[C@@H]21)OCO5` [HH, hippeastrine hydrobromide], for the setting “25 μM HH”, the “total ZIKV vRNA level in supernatant from D20+4 organoids” value is given as “suppresses total ZIKV vRNA level”. For the same molecule, the “ZIKV infection rate in D20+4 forebrain organoids” value (25 μM HH, 3 day treatment, hydrobromide) was “undetectable levels; also recorded: below the detection limit”. For the same molecule, under “HH treated, 18 days after infection, hydrobromide”, the “ZIKV infection in D20+18 organoids (long-term)” value was “devoid of any detectable ZIKV; also recorded: suppressed any detectable ZIKV infection”.
For the molecule `CCN(CC)Cc1cc(Nc2ccnc3cc(Cl)ccc23)ccc1O` [AQ, amodiaquine dihydrochloride dihydrate], the “ZIKV infection in D20 organoids” value (15 μM AQ, D20+4, dihydrochloride dihydrate) was “suppresses ZIKV infection; also recorded: reduces ZIKV infection”.

For the origin of these results see patent US11466020B2, “Compounds and compositions for inhibition and elimination of Zika infection and uses for same” (Cornell University, priority 2017, dated 2022).
